Data as given in ChEMBL document CHEMBL2034951 (J Med Chem, 2011).
Active and inactive are the calls of the source. The rule behind the calls is not given here.

Legend:
[1] = molecular target: T1, Prostaglandin G/H synthase 1 (Ovis aries) (UniProt P05979); assay: Reversible binding to ram seminal vesicle COX1 at 300 uM at 600 MHz and 37 degC by saturation transfer difference 1[H]NMR spectroscopy
T1 sequence (whole entry): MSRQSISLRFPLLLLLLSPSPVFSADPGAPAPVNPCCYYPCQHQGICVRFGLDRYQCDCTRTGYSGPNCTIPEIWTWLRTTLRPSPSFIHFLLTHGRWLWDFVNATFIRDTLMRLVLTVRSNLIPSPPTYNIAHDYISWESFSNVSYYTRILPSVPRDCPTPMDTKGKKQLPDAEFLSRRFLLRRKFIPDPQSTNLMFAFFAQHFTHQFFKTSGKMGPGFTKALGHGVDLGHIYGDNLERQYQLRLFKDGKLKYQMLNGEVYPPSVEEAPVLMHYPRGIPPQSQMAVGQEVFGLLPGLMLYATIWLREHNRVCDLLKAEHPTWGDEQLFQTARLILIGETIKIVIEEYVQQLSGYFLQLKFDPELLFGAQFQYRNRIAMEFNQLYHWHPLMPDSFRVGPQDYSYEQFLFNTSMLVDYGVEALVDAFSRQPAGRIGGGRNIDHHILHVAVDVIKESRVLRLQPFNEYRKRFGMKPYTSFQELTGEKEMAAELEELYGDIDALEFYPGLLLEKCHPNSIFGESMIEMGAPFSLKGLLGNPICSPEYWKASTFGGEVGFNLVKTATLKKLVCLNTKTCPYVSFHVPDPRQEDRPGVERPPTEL

[2] = molecular target: T2, Prostaglandin G/H synthase 2 (Homo sapiens, UniProt P35354); assay: Inhibition of human COX2 measured after pre-incubation of enzyme with compound
T2 sequence (P35354 whole entry): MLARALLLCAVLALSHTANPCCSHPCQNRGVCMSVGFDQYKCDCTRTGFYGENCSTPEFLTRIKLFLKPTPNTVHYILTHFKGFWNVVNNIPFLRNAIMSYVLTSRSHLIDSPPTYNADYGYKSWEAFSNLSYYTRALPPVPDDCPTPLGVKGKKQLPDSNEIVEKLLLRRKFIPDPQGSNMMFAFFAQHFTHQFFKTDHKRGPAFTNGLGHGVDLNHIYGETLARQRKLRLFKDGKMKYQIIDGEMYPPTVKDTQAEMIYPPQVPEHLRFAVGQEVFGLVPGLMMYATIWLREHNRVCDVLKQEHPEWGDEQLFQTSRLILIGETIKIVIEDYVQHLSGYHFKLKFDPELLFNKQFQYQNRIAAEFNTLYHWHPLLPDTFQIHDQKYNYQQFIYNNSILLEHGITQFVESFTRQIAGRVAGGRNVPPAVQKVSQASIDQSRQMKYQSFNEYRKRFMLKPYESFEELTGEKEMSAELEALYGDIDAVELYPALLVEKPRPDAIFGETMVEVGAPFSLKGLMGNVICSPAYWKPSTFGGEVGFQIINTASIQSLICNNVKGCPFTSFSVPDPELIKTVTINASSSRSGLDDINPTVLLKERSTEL

[3] = molecular target: T2, Prostaglandin G/H synthase 2; assay: Instantaneous inhibition of human COX2 measured immediately after incubation of enzyme with compound

Structure (SMILES)	Activity [1]	IC50 [2] [µM]	IC50 [3] [µM]
CC(C)Cc1ccc(C(C)C(=O)O)cc1 (stereo not given)	Active		
O=C(O)Cc1ccccc1Nc1c(Cl)cccc1Cl	Active		
O=C(c1ccccc1)c1ccc2n1CCC2C(=O)O (racemic) [KETOROLAC TROMETHAMINE]	Active	0.12	60.5
